Experiments:
Human plasma kallikrein = Human plasma kallikrein (Homo sapiens (Human), UniProt P03952); experiment: Determination of the IC50 for plasma kallikrein (fluorogenic substrate H-DPro-Phe-Arg-AFC); type: biochemical; conditions: 37° C., read-out: IC50 (human PKal)
Method: Determination of the IC50 Plasma Kallikrein Plasma kallikrein inhibitory activity in vitro was determined using standard published methods (see e.g. Johansen et al., Int. J. Tiss. […] Shori et al., Biochem. Pharmacol., 1992, 43, 1209; Stürzebecher et al., Biol. Chem. Hoppe-Seyler, 1992, 373, 1025). Human plasma kallikrein (Protogen) was incubated at 37° C. with the fluorogenic substrate […] and various concentrations of the test compound.

Human KLK1 = Human KLK1 (Homo sapiens (Human), UniProt P06870); experiment: Determination of the IC50 for KLK1 (fluorogenic substrate H-DVal-Leu-Arg-AFC); type: biochemical; conditions: human KLK1, 37° C.
Method: Selected compounds were further screened for inhibitory activity against the related enzyme KLK1. The ability of the compounds of formula (I) to inhibit KLK1 may be determined using the following biological assay:
Determination of the IC50 for KLK1
KLK1 inhibitory activity in vitro was determined using standard published methods (see e.g. Johansen et al., Int. J. Tiss. Reac. 1986, 8, 185; Shori et al., Biochem. Pharmacol., 1992, 43, 1209; Stürzebecher et al., Biol. Chem. Hoppe-Seyler, 1992, 373, 1025). Human KLK1 (Callbiochem) was incubated at 37° C. with the fluorogenic substrate H-DVal-Leu-Arg-AFC and various concentrations of the test compound. Residual enzyme activity (initial rate of reaction) was determined by measuring the change in optical absorbance at 410 nm and the IC50 value for the test compound was determined.

Human plasma kallikrein, sequence (P03952 391-638 limits assumed): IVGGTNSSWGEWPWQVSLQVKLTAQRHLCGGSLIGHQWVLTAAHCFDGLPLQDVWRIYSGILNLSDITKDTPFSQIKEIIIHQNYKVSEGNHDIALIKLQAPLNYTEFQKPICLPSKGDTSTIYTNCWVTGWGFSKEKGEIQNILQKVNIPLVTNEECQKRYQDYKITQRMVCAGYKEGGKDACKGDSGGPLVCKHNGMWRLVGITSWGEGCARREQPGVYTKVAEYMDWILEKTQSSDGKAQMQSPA
Human plasma kallikrein, sequence (P03952 20-390 partner limits assumed): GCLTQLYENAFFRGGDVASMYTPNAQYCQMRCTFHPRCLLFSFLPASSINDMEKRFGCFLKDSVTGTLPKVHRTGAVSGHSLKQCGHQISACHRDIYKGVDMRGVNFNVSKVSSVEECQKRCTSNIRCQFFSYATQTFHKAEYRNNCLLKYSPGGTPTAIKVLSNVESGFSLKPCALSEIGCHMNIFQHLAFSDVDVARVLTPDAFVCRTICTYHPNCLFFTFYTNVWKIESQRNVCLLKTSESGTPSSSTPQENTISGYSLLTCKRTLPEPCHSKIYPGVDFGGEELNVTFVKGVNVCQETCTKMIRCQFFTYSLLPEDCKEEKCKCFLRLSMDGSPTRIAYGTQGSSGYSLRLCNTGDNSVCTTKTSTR
Human KLK1, sequence (P06870 25-262): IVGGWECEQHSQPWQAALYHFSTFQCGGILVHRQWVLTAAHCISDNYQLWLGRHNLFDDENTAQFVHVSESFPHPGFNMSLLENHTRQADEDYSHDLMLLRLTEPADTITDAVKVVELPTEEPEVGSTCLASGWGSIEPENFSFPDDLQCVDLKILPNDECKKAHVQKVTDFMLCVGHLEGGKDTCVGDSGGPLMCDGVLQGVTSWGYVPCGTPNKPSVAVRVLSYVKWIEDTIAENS

Row | SMILES | IC50 (Human plasma kallikrein) [µM] | IC50 (Human KLK1) [µM]
1 | Nc1nccc2cc(CNC(=O)c3cncc(Cc4ccccc4)c3)ccc12 [Example 23, N-[(1-Aminoisoquinolin-6-yl)methyl]-5-benzylpyridine-3-carboxamide] | 40 | 32.7
2 | Nc1nccc2cc(CNC(=O)c3cncc(CN4CCN(Cc5ccccc5F)CC4)c3)ccc12 [Example 44, N-[(1-Aminoisoquinolin-6-yl)methyl]-5-({4-[(2-fluorophenyl)methyl]piperazin-1-yl}methyl)pyridine-3-carboxamide] | 6.79 | 28
3 | COc1ncc(Cc2ccc3nc(C)ccc3c2)cc1C(=O)NCc1ccc2c(N)nccc2c1 [Example 19, N-[(1-Aminoisoquinolin-6-yl)methyl]-2-methoxy-5-[(2-methylquinolin-6-yl)methyl]pyridine-3-carboxamide] | 0.434 | 1.21
4 | CNc1ncc(C(=O)NCc2ccc3c(N)nccc3c2)cc1Cc1ccc2nc(C)ccc2c1 [Example 21, N-[(1-Aminoisoquinolin-6-yl)methyl]-6-(methylamino)-5-[(2-methylquinolin-6-yl)methyl]pyridine-3-carboxamide] | 0.0533 | 5.99
5 | COc1ccccc1Cc1cncc(C(=O)NCc2ccc3c(N)nccc3c2)c1 [Example 29, N-[(1-Aminoisoquinolin-6-yl)methyl]-5-[(2-methoxyphenyl)methyl]pyridine-3-carboxamide] | 20.2 | 7.35
6 | CCN(CC)c1cc(Cc2cncc(C(=O)NCc3ccc4c(N)nccc4c3)c2)ccn1 [Example 87, N-[(1-Aminoisoquinolin-6-yl)methyl]-5-{[2-(diethylamino)pyridin-4-yl]methyl}pyridine-3-carboxamide] | 0.358 | 4.98
7 | Nc1nccc2cc(CNC(=O)c3cncc(CN4CCN(c5ccccc5)CC4)c3)ccc12 [Example 39, N-[(1-Aminoisoquinolin-6-yl)methyl]-5-[(4-phenylpiperazin-1-yl)methyl]pyridine-3-carboxamide] | 10 | –
8 | Cc1cnn(Cc2ccc(Cc3cncc(C(=O)NCc4cnc5[nH]ccc5c4)c3)cc2)c1 [Example 2] | – | > 10
9 | Cc1cnn(Cc2ccc(Cc3ccnc(C(=O)NCc4cnc5[nH]ccc5c4)c3)cc2)c1 [Example 4] | – | > 40
10 | Cc1cnn(Cc2ccc(Cc3cncc(C(=O)NCc4ccc5c(N)nccc5c4)c3)cc2)c1 [Example 1, N-[(1-Aminoisoquinolin-6-yl)methyl]-({4-[(4-methylpyrazol-1-yl)methyl]phenyl}methyl)pyridine-3-carboxamide] | – | > 10

Second part, the molecule after the results:

Row | IC50 (Human plasma kallikrein) [µM] | IC50 (Human KLK1) [µM] | SMILES
11 | 1.67 | 8.54 | Nc1nccc2cc(CNC(=O)c3cncc(Cc4ccnc(N5CCOCC5)c4)c3)ccc12 [Example 85, N-[(1-Aminoisoquinolin-6-yl)methyl]-5-{[2-(morpholin-4-yl)pyridin-4-yl]methyl}pyridine-3-carboxamide]
12 | 0.432 | > 10 | Nc1nccc2cc(CNC(=O)c3cncc(Cc4ccc(N5CCOCC5)nc4)c3)ccc12 [Example 63, N-[(1-Aminoisoquinolin-6-yl)methyl]-5-{[6-(morpholin-4-yl)pyridin-3-yl]methyl}pyridine-3-carboxamide]
13 | 1.74 | > 10 | CC(C)Oc1ccc(Cc2cncc(C(=O)NCc3ccc4c(N)nccc4c3)c2)cn1 [Example 70, N-[(1-Aminoisoquinolin-6-yl)methyl]-5-[(6-isopropoxypyridin-3-yl)methyl]pyridine-3-carboxamide]
14 | 0.0511 | 6.69 | CC(C)N(C)c1ccc(Cc2cncc(C(=O)NCc3ccc4c(N)nccc4c3)c2)cn1 [Example 73, N-[(1-Aminoisoquinolin-6-yl)methyl]-5-({6-[isopropyl(methyl)amino]pyridin-3-yl}methyl)pyridine-3-carboxamide]
15 | 0.0885 | 7.55 | Nc1nccc2cc(CNC(=O)c3cncc(Cc4ccnc(N5CCC(F)(F)C5)c4)c3)ccc12 [Example 80, N-[(1-Aminoisoquinolin-6-yl)methyl]-5-{[2-(3,3-difluoropyrrolidin-1-yl)pyridin-4-yl]methyl}pyridine-3-carboxamide]

From US10221161B2, “Inhibitors of plasma kallikrein” (Kalvista Pharmaceuticals Limited, priority 2013, dated 2019)
